# Key:
# [1] = Optical characterization (excitation/emission maxima, molar extinction coefficient); assay type: physicochemical; conditions: for Max Em (nm, PBS pH 7.4) / Max Em (nm, Seronorm): emission maximum; for Max Em (nm, Seronorm) / Max Ex (nm, Seronorm): Seronorm control serum; for Max Ex (nm, PBS pH 7.4) / Max Ex (nm, Seronorm): excitation maximum
# Procedure: A dual-beam UV-VIS spectrophotometer (Lambda 40, Perkin Elmer) was used to determine the absorbance (Abs) of the compounds of the invention. Emission/excitation (Em/Ex) spectra were carried out on a spectrofluorometer (FluoroLog-3 1IHR-320, Horiba Jobin Yvon) equipped with an F-3018 integrating sphere accessory. The measurements were performed using an excitation wavelength at maximum absorbance of different dyes, and the sample was excited with a 450 W Xenon light Source. Detection was performed by photomultiplier tubes (PMT-NIR) cooled detector or by TBX-04 detector. Dye solutions were carefully prepared to have an absorbance lower than 0.1 (optical densities) to minimize re-absorption phenomena.
# The compounds of the invention were characterized in terms of their optical properties in vitro in aqueous medium (i.e., water/PBS pH 7.4) and in a clinical chemistry control serum (Seronorm, Sero SA), mimicking the chemical composition and optical properties of human serum. All solutions were freshly prepared. In particular, the compounds of the invention are characterized by absorption maxima comprised in the range from about 750 nm to 780 nm.
# The excitation and emission maxima in PBS and Seronorm and the molar extinction coefficient (ε) in water of representative compounds of formula (I) are shown in Table I in comparison with the known CA-IX targeting fluorescent probe named Hypoxyfluor-1 (HF-1, for instance disclosed in Bioconjugate Chem 2018, 29, 3320-3331). […] Moreover, the extinction coefficients were higher than 200,000 mM^−1 cm^−1 for all compounds.
# [2] = target: T1, human serum albumin (HSA) (Homo sapiens, UniProt P02768); test: Binding to albumin (ultrafiltration, absorbance of filtrates); assay type: in vitro ADME; conditions: 4.76 μM probe in PBS, 10 KDa cut off ultrafiltration, 25° C.; read-out: HSA affinity (KA, M^−1) (converted)
# T1 construct: purchased Sigma-Aldrich A9511
# T1 sequence (P02768 25-609): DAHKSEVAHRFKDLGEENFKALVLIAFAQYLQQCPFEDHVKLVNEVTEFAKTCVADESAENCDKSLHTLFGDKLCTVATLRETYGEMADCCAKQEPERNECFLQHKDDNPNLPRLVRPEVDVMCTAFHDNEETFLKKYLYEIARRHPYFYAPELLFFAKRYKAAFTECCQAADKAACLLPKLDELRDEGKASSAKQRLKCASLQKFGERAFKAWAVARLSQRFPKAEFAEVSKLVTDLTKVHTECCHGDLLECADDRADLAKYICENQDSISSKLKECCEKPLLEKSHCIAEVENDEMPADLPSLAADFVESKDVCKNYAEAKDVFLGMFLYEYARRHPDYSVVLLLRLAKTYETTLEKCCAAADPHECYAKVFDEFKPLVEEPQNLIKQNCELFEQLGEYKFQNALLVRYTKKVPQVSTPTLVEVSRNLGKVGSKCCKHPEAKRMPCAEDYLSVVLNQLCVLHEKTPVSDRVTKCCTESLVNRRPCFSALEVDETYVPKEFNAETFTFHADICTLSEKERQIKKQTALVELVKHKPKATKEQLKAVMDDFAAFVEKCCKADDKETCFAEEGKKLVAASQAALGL
# Procedure: The affinity of the probes for human serum albumin (HSA) was determined to assess the influence of structural features on their albumin binding properties. Briefly, HSA (A9511, Sigma-Aldrich) was prepared in a […] stock solution in PBS and used to obtain a series of dilutions in PBS (0, 9.52·10^−7, 4.76·10^−6, 9.52·10^−6, 1.90·10^−5, 3.81·10^−5, 5.71·10^−5, 9.52·10^−5, 1.43·10^−4, 1.90·10^−4, 2.86·10^−4, 3.81·10^−4 M), in presence of 4.76 μM of the CA-IX-targeting probe (prepared from a 50 μM stock solution in PBS), in a total volume of 0.525 mL. The samples were centrifuged (10000 g for 30 min at 25° C.) in a Microcon device (10 KDa MW cut off, Amicon Ultra-0.5 Centrifugal Filter Unit with Ultracel-10 membrane) and the absorbance measurements of the filtrates were obtained with the spectrophotometer at the maximum absorbance wavelength of the fluorophore.
# Data analysis was performed by fitting the raw data, using Microsoft Excel Solver, with the equation:
# where ΔA/b=Absorbance measured (b=1 cm), KRL=KA calculated by fitting, Δε·Rt are calculated by fitting, and [L]=HSA concentration. ΔA/b values were experimentally obtained by subtracting the absorbance of “0 HSA sample” to the absorbance of each other sample.
# [3] = tested on: hypoxic HT-29 colorectal tumor, subcutaneously induced; test: In vivo tumor optical imaging (IVIS Spectrum), tumor-to-background ratio; design: species or system mice; conditions: 24 hours after intravenous administration, 1 nmol/mouse, tumor vs hind limb muscle
# Procedure: HT-29 cells were collected and washed once with serum-free medium. Five million HT-29 cells were suspended in 0.1 mL serum-free medium and injected subcutaneously in the right flank of 5 weeks old mice. Tumor development was followed by caliper measurement twice a week, from 7 days after inoculation. Tumor volume was calculated according to the formula: (L*W2)/2, where L and W are the maximum length and width of the tumor.
# Optical Imaging experiments on HT-29 tumor bearing animals were performed after administration of Reference 1, 2 and 3, and compounds 1 and 2, all at a dose of 1 nmol/mouse in an administration volume of 0.1 mL (corresponding to about 5 mL/kg, considering a 20 g-mouse) at an injection rate of about 1 mL/min, by the IVIS Spectrum system when the tumor reached at least 200 mm^3 volume. For each group, in vivo OI experiments were performed at 0.5, 1, 2, 3, 4, 6 and 24 hours after intravenous administration of the fluorescent compounds. During imaging experiments animals were maintained under gaseous anesthesia. Regions of interest (ROIs) were drawn on the tumor and on a reference background healthy region (hind limb muscle) of the mouse for each fluorescence image at every time point to evaluate signal intensity in the tissues (expressed as Average Radiant Efficiency). The ratio between the fluorescence signal in the tumor and in the background healthy tissue (tumor-to-background ratio, TBR) was then calculated to assess the contrast.
# All the compounds of the invention and the References were tested at a dose of 1 nmol/mouse.
# [4] = target: recombinant bovine CA-II enzyme (bCAII) (Bos taurus, UniProt P00921); test: Fluorescence-based dansylamide (DNSA) displacement assay on carbonic anhydrase catalytic site; conditions: for KD for bCAII, times lower than corresponding reference compound bearing the same cyanine dye: compound 1 vs Reference 2, compound 2 vs Reference 3
# Chain of recombinant bovine CA-II enzyme (bCAII) (P00921 whole entry): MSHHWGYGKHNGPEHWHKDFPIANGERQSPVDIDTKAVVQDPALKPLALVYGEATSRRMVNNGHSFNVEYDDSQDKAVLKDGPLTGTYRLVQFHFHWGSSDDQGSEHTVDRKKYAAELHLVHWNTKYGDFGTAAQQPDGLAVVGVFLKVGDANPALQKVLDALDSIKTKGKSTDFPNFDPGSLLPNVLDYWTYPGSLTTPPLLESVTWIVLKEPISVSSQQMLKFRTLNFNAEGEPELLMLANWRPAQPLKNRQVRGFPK
"Max Em (nm, PBS pH 7.4) [1] [nm]","Max Em (nm, Seronorm) [1] [nm]","Max Ex (nm, PBS pH 7.4) [1] [nm]","Max Ex (nm, Seronorm) [1] [nm]",Kd [2] [µM],Kd [4] [nM],"KD for bCAII, times lower than corresponding reference compound bearing the same cyanine dye [4] [times]",SMILES,in vivo TBR (mean ± SD) [3]
788,790,758,762,105,6.1 ± 1.6,5,CC(CC[N+]1=C(/C=C/C=C/C=C/C=C2/N(CCCCCC(=O)NCCCCCCCC(=O)Nc3nnc(S(N)(=O)=O)s3)c3ccc(C(=O)NC[C@H](O)[C@@H](O)[C@H](O)[C@H](O)CO)cc3C2(C)C)C(C)(C)c2cc(C(=O)NC[C@H](O)[C@@H](O)[C@H](O)[C@H](O)CO)ccc21)S(=O)(=O)[O-] (stereo partly shown) [Compound 2],10.1 ± 3.1
806,812,782,792,80,13.5 ± 1.6,4,CC1(C)C(/C=C/C2=C(Oc3ccc(S(=O)(=O)O)cc3)C(=C/C=C3/N(CCCCCC(=O)NCCCCCCCC(=O)Nc4nnc(S(N)(=O)=O)s4)c4ccc(C(=O)NC[C@H](O)[C@@H](O)[C@H](O)[C@H](O)CO)cc4C3(C)C)/CCC2)=[N+](CCCCS(=O)(=O)[O-])c2ccc(C(=O)NC[C@H](O)[C@@H](O)[C@H](O)[C@H](O)CO)cc21 [Compound 1],5.2 ± 1.0

# Reference: patent US20260009799A1, “CA-IX TARGETING FLUORESCENT PROBES” (BRACCO IMAGING S.P.A., priority 2022, published 2026)
